Entries after “also recorded” stand apart in the source; their conditions may differ.
Columns and labels:
[1] = tested on: streptozotocin (STZ) induced type II diabetes in Wistar Han rats; assay: Glycemic control in streptozotocin-induced diabetic rats, 16-day dosing; format: in vivo, rat
Protocol: The present example provides the ability of Compound 10 to restore glycemic control to streptozotocin (STZ) induced type II diabetes in Wistar Han rats. Fahmy et al., 2017, World J. Pharm. Med. Res. 3(3):37-39.
Control and test compounds were stored at 4° C. and prepared weekly as needed. The vehicle for positive control pioglitazone was 0.25% carboxymethylcellulose and 1% Tween® 80 in reverse osmosis deionized water. The vehicle for Compound 10 was 10% DMSO, 10% Solutol HS 15, and 80% (10% hydroxypropyl-β-cyclodextrin in 50 mM citrate buffer at pH 3.0). The vehicle for streptozotocin pretreatment was 0.1 M sodium citrate pH 4.5.
On Day −3, twenty-four Wistar Han rats (plus eight spare Wistar Han rats) were measured for body weight and non-fasting glucose. Starting on Day −42, D12451 Research Diet was provided ad libitum throughout the study, except during designated procedures, as was water. In order to minimize the effects of stress on blood glucose and body, all animals including the spares received daily sham doses with phosphate buffered saline pH 7.2 (dose volume 5 mL/kg) via gavage beginning on Study Day −5 to Day −1. 20% Glucose in drinking water (200 g/L) was provided ad libitum for 24 hr after streptozotocin injection on Day −14 and Day −7.
On Days −14 and −7, streptozotocin was administered at 30 mg/kg/day QD intraperitoneally. Starting on Day 1, control and test compound were administered on the following schedule.
On Days −7 to −1 and on Days 1, 8, and 14 non-fasting blood glucose was measured. On Day 15, an oral glucose tolerance test was administered. The animals were weighed and the animals were placed in clean cages without food. Access to water was provided throughout the procedure. The animals were fasted for five hours and a blood glucose measurement was determined. The animals were dosed via oral gavage with 2 g/kg glucose (10 mL/kg). Blood glucose was determined via venipuncture. The second drop of blood from the animal was placed on a hand-held glucometer (Abbott Alpha Trak) at the following times relative to the glucose dose: zero (just prior to glucose dose), 15, 30, 60, 90, and 120 min. Following the final blood glucose measurement, food was returned to the cages. On Day 17, 4-hour fasting glucose was measured. Serum samples were used to measure insulin by ELISA. Analysis was performed in one to three days of each collection. On Day 17, terminal blood collection was obtained at about 8 mL per animal and measured for blood glucose.
ZDF rats were treated daily with Compound 10, vehicle, or pioglitazone for sixteen days and monitored for an additional two weeks post-treatment until Day 29. STZ rat models were induced through pre-treatment of animals on a high-fat diet with low doses of streptozotocin at Day −14 and Day −7 prior to starting treatment at Day Zero until Day 16. ZDF and STZ rats were monitored for fasting blood glucose levels, oral glucose tolerance test (OGTT), insulin and C-peptide levels, HOMA-IR (Homeostatic Model Assessment of Insulin Resistance), blood lipemic levels, and body weight according to the schematic for each model below. ZDF rats were analyzed for indicated readouts for fifteen days post-treatment for OGTT at Day 29, and serum insulin and C-peptide at Day 31.
STZ Rat Model—three treatment groups 1. Vehicle; 2. Compound 10 at 175 mg/kg; and 3. Pioglitazone at 30 mg/kg; n=10 per group. […] Rats were monitored for the following parameters through dosing—body weight, blood glucose levels, and OGTT.

[2] = tested on: Toledo; assay: DLBCL cell line proliferation (Cell Titer Glo, four days): Toledo; format: cell-based; settings: DHL, MYC/BCL2
Protocol: (§1) DLBCL cell line TOLEDO was cultured in the presence of Compound A or clinical reversible menin inhibitors for six and fourteen hours. Menin protein expression was reduced up to 60% at 1 μM by Compound A after fourteen hours compared to clinical reversible inhibitors at <20% at similar concentrations. Menin protein expression was measured by the Wes system and analyzed using the Compass software (automated western blotting, Protein Simple). Signal was normalized to GAPDH and referenced to DMSO control (FIG. 36E). DLBCL and MM cell lines were cultured with Compound A, bortezomib (PS-341), or DMSO for four days and cell proliferation was measured by Cell Titer Glo. Ex vivo studies of DLBCL and MM models were conducted by measurement of cell proliferation (Cell Titer Glo) after six days of treatment with Compound A, PS-341, or DMSO control.

[3] = tested on: VAL; assay: DLBCL cell line proliferation (Cell Titer Glo, four days): VAL; format: cell-based; settings: THL
Protocol: as §1

[4] = tested on: MM cell lines; assay: MM cell line panel proliferation (Cell Titer Glo, four days); format: cell-based
Protocol: (§2) Compound A was tested against a THL cell line (VAL), and a DEL cell line (U2932). An expanded panel of DHL cell lines were tested for sensitivity to Compound A. Ex vivo patient samples of THL and MYC-amplified DLBCL were tested with Compound A. Sensitivity of THL and MYC-driven DLBCL in both in vitro and ex vivo models were compared with clinical reversible menin inhibitors. Compound A was tested against a panel of MM cell lines and ex vivo MM patient samples of p53del, 13qdel, and relapsed/refractory cases.
as §1

[5] = tested on: MM1.S; assay: MM cell line proliferation (Cell Titer Glo, four days): MM1.S; format: cell-based; settings: t(14; 16), KRAS G12A
Protocol: as §1

[6] = tested on: MM1.R; assay: MM cell line proliferation (Cell Titer Glo, four days): MM1.R; format: cell-based; settings: t(14; 16), KRAS G12A
Protocol: as §1

[7] = tested on: SKMM1; assay: MM cell line proliferation (Cell Titer Glo, four days): SKMM1; format: cell-based; settings: SKMM1, t(14; 20), NRAS G12A
Protocol: as §1

[8] = tested on: patient-derived THL and MYC-amplified DLBCL PDX samples; assay: Ex vivo DLBCL patient-derived PDX samples (Cell Titer Glo, six days); format: cell-based, human; settings: THL/R-CHOP-refractory and MYC amplification/R-EPOCH refractory clinical profiles
Protocol: as §2, §1

[9] = tested on: MM patient-derived bone marrow mononuclear cells (BMMCs); assay: Ex vivo MM patient-derived bone marrow mononuclear cells (Cell Titer Glo, six days); format: cell-based; settings: Homo sapiens, BMMC; panel of newly diagnosed and R/R ex vivo MM samples, single agent
Protocol: as §2, §1

C=CC(=O)N[C@@H]1CCCN(Cc2ccnc(C(=O)Nc3ccc(-c4cc5c(N6CCOCC6)ncnc5[nH]4)cc3)c2)C1 [Compound A, N-[4-[4-(4-morpholinyl)-7H-pyrrolo[2,3-d]pyrimidin-6-yl]phenyl]-4-[[3(R)-[(1-oxo-2-propen-1-yl)amino]-1-piperidinyl]methyl]-2-pyridinecarboxamide]
OGTT AUC reduction ([1]; STZ rats, Day 15, p<0.05): 41%
insulin in the non-fasting and fasting states ([1]; STZ-induced rats (FIG. 20A, 20B)): maintenance or reduction of insulin
non-fasting glucose ([1]; STZ-induced rats, 175 mg/kg/day PO QD, compared to vehicle and control, listed as Compound 10, 175 mg/kg/day): reduction of glucose levels; also recorded: sharp reduction in non-fasting glucose
insulin in the non-fasting state ([1]; STZ-induced rats, Days 1 and 8 (FIG. 19)): significant reduction of insulin
oral glucose tolerance test, glucose control ([1]; STZ-induced rats, after fifteen days of treatment): significant glucose control
Average % Max Inhibition by Compound A [2]: 98.8%
Average % Max Inhibition by Compound A ([3]; MYC/BCL2/BCL6): 97.1%
IC50 ([3]; MYC/BCL2/BCL6, read-out: Average IC50 ± Standard Deviation): 271 ± 70 nM
cell lethality ([4]; MM cell lines): > 99%
growth inhibition ([4]; MM cell lines harboring mutations in TP53, KRAS, and NRAS, 1 μM exposure, single agent): 100%
Average % Max Inhibition by Compound A [5]: 99.5%
Average % Max Inhibition by Compound A [6]: 99.6%
Average % Max Inhibition by Compound A [7]: 99.2%
IC50 ([7]; read-out: Average IC50 ± Standard Deviation): 467 ± 50 nM
growth inhibition of ex vivo DLBCL patient samples [8]: complete growth inhibition; also recorded: highly effective
IC50 [9]: 100 to 300 nM

Source: US20240417404A1, “CRYSTALLINE FORMS OF N-[4-[4-(4-MORPHOLINYL)-7H-PYRROLO[2,3-d]PYRIMIDIN-6-YL]PHENYL]-4-[[3(R)-[(1-OXO-2-PROPEN-1-YL)AMINO]-1-[sequence]]METHYL]-2-PYRIDINECARBOXAMIDE AS IRREVERSIBLE INHIBITORS OF MENIN-MLL INTERACTION” (BIOMEA FUSION, INC., priority 2023, published 2024)
